Assay results as given in patent US4994468A, “Imidazoquinolone derivatives” (Kyowa Hakko Kogyo Co., Ltd., priority 1989, dated 1991).

How the values were obtained:
Acute toxicity = conditions: mouse, in vivo; po, mortality for seven days, male dd-mice
Experimental: The compounds were orally administrated (po: 300 mg/kg) to male dd-mice weighing 20 to 25 g. LD50 was determined by observing the mortality for seven days after the administration.

[1] = system: trachea strips of passively sensitized guinea pigs, antigen (EWA) induced contraction; experiment: Effects on passive Schultz-Dale reaction (broncho-dilatory effects); assay type: cell-based, guinea pig (Hartley male); conditions: Cavia porcellus; concentration of 50% relaxation; sensitized guinea pig trachea, antigen EWA 1 μg/ml, cumulative addition, 37° C.
Experimental: (a) Effects on passive Schultz-Dale reaction (broncho-dilatory effects). Guinea pigs were passively sensitized as follows. Hartley male guinea pigs weighing 350 to 500 g were injected intraperitoneally with rabbit anti-egg albumin (EWA) serum prepared by the method of Eda et al. [Folia pharmacol., Japon 66, 237, (1970)]. After 24 hours, the guinea pigs were stunned and exsanguinated, and then trachea was excised. The zig-zag strips of the […] prepared by the method of Emmerson and Mackay [J. Pharm. Pharmacol., 31, 798, (1979)]. The strips were suspended in Krebs-Henseleit solution at 37° C. under aeration of a mixed gas of 95% oxygen and 5% carbon dioxide, and incubated for one hour. Antigen (EWA) was then introduced in the solution (final concentration; 1 μg/ml), and the contraction was measured by isotonictrasducer (TD-112s, made by Nihon Kohden K.K., Japan) and recorded on a recorder (Type 3066, made by Yokogawa-Hokushin Denki, K.K. Japan). After the contraction curves reached plateau, the compounds were successively added in order to get cumulative concentration-relaxation curves.

[2] = system: passive cutaneous anaphylaxis (PCA); experiment: Antiallergic effects: 48 hour-homologous passive cutaneous anaphylaxis (PCA) test in rats; assay type: in vivo, rat (Wistar male); conditions: Rattus norvegicus; minimum effective dosage: suppression rate 50% or higher in at least one of three rats; oral, 1 hour before PCA challenge; read-out: Anti-allergic effect (MED)
Experimental: Antiallergic effects of compounds were assessed by passive cutaneous anaphylaxis (PCA) test in rats. Wistar male rats weighing 180 to 220 g were used for collection of antiserum and Wistar male rats weighing 120 to 140 g for PCA test.
(i) Preparation of anti EWA serum in rat
Anti-EWA rat serum was prepared by the method of Stotland and Share [Can. J. Physiol. Pharmacol., 52, 1114, (1974)] as follows. That is, 1 mg of EWA, 20 mg of aluminium hydroxide gel and 0.5 ml of mixed vaccine of pertussis, diphtheria and tetanus were mixed, and the mixture was subcutaneously injected in 4 portions into the foot part of the rats. After 14 days, the blood of sensitized rats was collected from carotid artery. The serum was separated by centrifugation from collected blood, and kept at -80° C. Titer of the 48 hour homologous PCA tests of the serum was 1:32.
(ii) Effects on 48 hour-homologous PCA tests in rats
Groups each consisting of three male rats were used, and 0.05 ml of anti-EWA serum diluted to 8 times with a physiological saline, was sensitized passively by giving intradermal injection at two depilated points on the dorsum. After 47 hours, the test compound or its solvent (saline or CMC solution) was orally administrated, and 1 hour thereafter, PCA reaction was induced by intravenous administration of 1% Evan's blue-saline (0.5 ml/100 g) containing 2 mg of […]. After 30 minutes, animals were sacrificed by bleeding and dorsal skin was stripped to determin the extravasated dye at blue-dyed reaction site, by the method of Katayama et al. [Microbiol. Immunol., 22, 89 (1978)]. The blue-dyed spots were scissored out and placed in a test tube containing 1 ml of 1N sodium hydroxide and incubated at 37° C. for 24 hours. 9 ml of a mixture of 0.6N phosphate:acetone (5:13) was added thereto. After shaking, the mixture was centrifuged at 2500 rpm for 10 minutes. A supernatant was separated, and extravasated dye in the supernatant was quantified by measuring absorbance of the supernatant at 620 nm. Prepared calibration curve was used for the quantification. An average of measurements at the two positions was made a value for one animal, and suppression rate of the one animal was calculated by following equation: [formula]

[3] = system: experimental asthma in passively sensitized guinea pigs; experiment: Effects on experimental asthma; assay type: in vivo, guinea pig (Hartley male); conditions: 50 mg/kg orally, one hour before aerosol antigen 1.5% EWA; mean + SEM of 5 or 10 animals; control 254 ± 18
Experimental: (c) Effects on experimental asthma Guinea pigs were passively sensitized as follows. Hartley male guinea pigs weighing 350 to 500 g were intraperitoneally injected with 1 ml of rabbit EWA serum prepared by the method of Eda et al. [Folia pharmacol., Japon, 66, 237 (1970)]. The animals were treated with intraperitoneal injection of diphenhydramine (20 mg/kg) and propranolol (5 mg/kg), 30 minutes before administration of test compounds. 17 hours after the sensitization, the test compounds (50 mg/kg) were orally administrated to sensitized animals. After one hour from the administration of the test compounds, the guinea pigs were placed in plastic observation box and were exposed to an aerosal antigen of 1.5% EWA. The time until the onset of respiratory […] symptom [collapse time (second)] was measured as a result of experimental asthma.

SMILES	LD50 at 168 h (Acute toxicity) [mg/kg]	IC50 [1] [µM]	minimal effective dose [2] [mg/kg]	Experimental asthma (collapse time) [3] [s]
CCCCn1c(=O)c2ncn(Cc3ccccc3)c2c2ccccc21 [Compound 7, 1-Benzyl-5-n-butyl-1H,5H-imidazo[4,5-c]quinolin-4-one]	> 300	> 20	> 100	–
CCn1c(=O)c2ncn(C)c2c2ccccc21 [Compound 5, 5-Ethyl-1-methyl-1H,5H-imidazo[4,5-c]quinolin-4-one]	> 100	> 20	< 10	519 ± 78
CCCn1c(=O)[nH]c(=O)c2[nH]cnc21 [Enprofylline, reference compound]	–	10	≤ 100	–
Cn1c(=O)c2[nH]cnc2n(C)c1=O [Theophylline, reference compound]	–	–	–	414 ± 47
CCCCn1c(=O)c2nc(S)n(C)c2c2ccccc21 [Compound 31, 5-n-Butyl-1-methyl-2-mercapto-1H,5H-imidazo[4,5-c] quinolin-4-one]	> 300	9.6	> 100	284 ± 48
CCCCn1c(=O)c2ncn(CCC)c2c2ccccc21.Cl [Compound 17W, 5-n-Butyl-1-n-propyl-1H,5H-imidazo[4,5-c]quinolin-4-one hydrochloride]	> 300	2.4	> 100	484 ± 31
Cn1cnc2c(=O)n(Cc3ccco3)c3ccccc3c21 [Compound 3, 5-Furfuryl-1-methyl-1H,5H-imidazo[4,5-c]quinolin-4-one]	> 300	> 20	> 100	–
CCCCn1c(=O)c2ncn(C)c2c2ccccc21 [Compound 1, 5-n-Butyl-1-methyl-1H,5H-imidazo[4,5-c]quinolin-4-one]	> 300	0.0034	< 10	517 ± 37
CCCCn1c(=O)c2ncn(C)c2c2c(C)cccc21.Cl [Compound 27W, 5-n-Butyl-1,9-dimethyl-1H,5H-imidazo[4,5-c]quinolin-4-one hydrochloride]	> 300	> 20	100	–
Cn1cnc2c(=O)n(C)c3ccccc3c21 [Compound 4, 1,5-Dimethyl-1H,5H-imidazo[4,5-c]quinolin-4-one]	> 200	> 20	> 10	–
CCCCn1c(=O)c2ncn(C(C)C)c2c2ccccc21.Cl [Compound 18W, 5-n-Butyl-1-isopropyl-1H,5H-imidazo[4,5-c]quinolin-4-one hydrochloride]	> 300	1.5	> 100	425 ± 50
CCCCn1cnc2c(=O)n(CCCC)c3ccccc3c21.Cl [Compound 19W, 1,5-Di-n-butyl-1H,5H-imidazo[4,5-c]quinolin-4-one hydrochloride]	> 300	6.4	> 100	503 ± 44
CCCCn1c(=O)c2nc[nH]c2c2ccccc21 [Compound 8, 5-n-Butyl-1H,5H-imidazo[4,5-c]quinolin-4-one]	> 300	> 20	> 100	–
Cn1cnc2c(=O)n(CC(=O)O)c3ccccc3c21 [Compound 9, 5-Carboxymethyl-1-methyl-1H,5H-imidazo[4,5-c]quinolin-4-one]	> 300	> 20	> 100	532 ± 31
CCCCn1c(=O)c2ncn(CC)c2c2ccccc21.Cl [Compound 16W, 5-n-Butyl-1-ethyl-1H,5H-imidazo[4,5-c]quinolin-4-one hydrochloride]	> 300	4.1	> 100	422 ± 43
CCCCn1c(=O)c2nnn(C)c2c2ccccc21 [Compound 32, 5-n-Butyl-1-methyl-1H,5H-triazolo[4,5-c]quinolin-4-one]	> 300	1.6	> 100	–
CCCCn1c(=O)c2ncn(C)c2c2cc(C)ccc21 [Compound 26, 5-n-Butyl-1,8-dimethyl-1H,5H-imidazo[4,5-c]quinolin-4-one]	> 300	9.8	100	–
CCCCn1c(=O)c2ncn(C)c2c2ccc(Cl)cc21.Cl [Compound 24W, 5-n-Butyl-7-chloro-1-methyl-1H,5H-imidazo[4,5-c]quinolin-4-one hydrochloride]	> 300	0.9	> 100	–
CCCn1c(=O)c2ncn(C)c2c2ccccc21 [Compound 6, 1-Methyl-5-n-propyl-1H,5H-imidazo[4,5-c]quinolin-4-one]	> 200	< 20	< 10	600 ± 0
CC(C)C(=O)c1c(C(C)C)nn2ccccc12 [KC 404, reference compound]	–	0.86	> 100	–
